# In patent US9464972B2, “Apparatus and procedure for in vitro measurement of a substance, nicotine, released from a smokeless tobacco product” (priority 2011, dated 2016):
# Like-named read-outs stand apart in the source and are kept apart here.
# Conditions: for nicotine release (accumulated, of total nicotine): artificial saliva Table 3, pH 5.8, 37° C., flow 4 ml/min
# From the text: The nicotine extraction and collection procedure include the following steps:
# 1. Add fluid (140) to the reservoir (120). Fluid (140) is artificial saliva where the extraction is nicotine from a smokeless tobacco product;
# 2. Set the bath (200) and the heating or cooling element (220) temperature control (230) to the temperature desired as established from the in vivo environment. Where the fluid (140) is artificial saliva and, for the measurement of nicotine in a smokeless tobacco product, set the temperature to 37° C.;
# 3. Start the fluid pump (180) and set the pump to the desired pump rate.
# 4. When the temperature and flow rate are stabilized, add the product sample (330) to extraction bottle interior (304) onto the screen mesh (325). Where the product sample is for a smokeless tobacco product sample (330) the product sample (330) is a smokeless tobacco sachet; the product sample (330) is placed onto the screen mesh (325) in alignment with the supply tube (310);
# 5. The fluid (140) from the supply tube (310) is flowed or dripped onto the product sample (330) producing an extract (1000) from the combination of the fluid (140) and the sample (330) which is drained from the extraction bottle (300) by a collection tube (335) and is then deposited into at least one collection bottle (400) at intervals determined by experimental design. Where the product sample (330) is a smokeless tobacco product sample (330) 1−n collection bottles (400) will used with bottles (400) changed at intervals of 1-5 min based on experimental design;
# 6. Extract the residual element from the product sample (330) by placing the product sample (330) in solvent effective for the type of product sample (330); where the product sample (330) is a smokeless tobacco product, the solvent in the preferred embodiment is 20 to 50 ml ethanol:5% NaOH mixture (9:1), and extract with ultrasound for 30 min.
# 7. Measure the target element in the extract (1000) by use of a measuring instrument suitable for the attributes of the target element in the extract (1000); for the preferred embodiment when the target element is nicotine from a smokeless tobacco product the measuring instrument is high-performance liquid chromatography (HPLC); the extract (1000) of nicotine in artificial saliva and the residual nicotine from ethanol NaOH mixture are determined using HPLC in the following conditions: • 1. Chromatograph column is a C18 reverse phase column • 2. Mobile phase is methanol and 20 mmol phosphate buffer (23:77, volume to volume) with 0.2% Triethylamine, pH=6.0 • 3. Flow rate is 1 ml/min • 4. Column temperature is 35° C.
# Artificial saliva temperature was maintained at 37° C., pump flow rate 1 ml/min. Artificial saliva was made using the formula in Table 1, with a pH of 6.7. The artificial saliva collection intervals were at 1, 2, 3, 4, 5, 6, 7, 8, 9, 10, 12, 14, 16, 18, 20, 24, 28, 32 minutes after the extraction started.
# Artificial saliva temperature was maintained at 37° C., pump flow rate 2 ml/min. Artificial saliva was made using the formula in Table 2, with a pH of 7.0. The artificial saliva collection intervals were at 1, 2, 3, 4, 5, 6, 7, 8, 9, 10, 12, 14, 16, 18, 20, 22, 24, 26, 28, 30 minutes after the extraction start.
# Artificial saliva temperature was maintained at 37° C., pump flow rate 4 ml/min. Artificial saliva was made using the formula in Table 3, with a pH of 5.8. The artificial saliva collection intervals were at 2, 4, 6, 7, 8, 10, 12, 14, 16, 18, 20, 24, 28, and 32 minutes after the extraction start.
structure (smiles),measurement,setting,value
CN1CCCC1c1cccnc1 (centres unmarked) [nicotine],nicotine collected,"Example 1: 20 to 32 min extraction period, artificial saliva Table 1, pH 6.7, 37° C., flow 1 ml/min",very little
same,"nicotine released from tobacco (accumulated, of total nicotine)","Example 1: after 20 min of extraction, artificial saliva Table 1, pH 6.7, 37° C., flow 1 ml/min",over 90%
same,average rate of nicotine release,"Example 1: first 5 minutes, artificial saliva Table 1, pH 6.7, 37° C., flow 1 ml/min, smokeless tobacco sachet",approximately 10%
same,average rate of nicotine release,"Example 1: from 6 min to 10 min, artificial saliva Table 1, pH 6.7, 37° C., flow 1 ml/min",approximately 4.3%
same,average rate of nicotine release,"Example 1: from 11 min to 20 min, artificial saliva Table 1, pH 6.7, 37° C., flow 1 ml/min",approximately 1%
same,nicotine collected,"Example 2: 20 to 30 min extraction period, artificial saliva Table 2, pH 7.0, 37° C., flow 2 ml/min",very little
same,nicotine released (of total nicotine),"Example 2: first 5 minutes, artificial saliva Table 2, pH 7.0, 37° C., flow 2 ml/min",64%
same,"nicotine released from tobacco (accumulated, of total nicotine)","Example 2: first 20 min of extraction, artificial saliva Table 2, pH 7.0, 37° C., flow 2 ml/min",over 95%
same,"nicotine released (additional, of total nicotine)","Example 2: from 6 min to 10 min, artificial saliva Table 2, pH 7.0, 37° C., flow 2 ml/min",20%
same,"nicotine release (accumulated, of total nicotine)",Example 3: first 6 min,82%
same,"nicotine release (accumulated, of total nicotine)",Example 3: first 10 min,92%
